Experimental data from patent US20260042745A1, “PYRROLIDINE-2-CARBOXAMIDE DERIVATIVES AS PROSTAGLANDIN E2 RECEPTOR 4 (EP4) AGONISTS FOR THE TREATMENT OF GASTROINTESTINAL AND PULMONARY DISEASES” (NXERA PHARMA UK LIMITED, priority 2022, published 2026).

Key:
[1] = target: T1, human EP4 (Homo sapiens, UniProt P35408); assay: cAMP Gs functional assay (HTRF cAMP dynamic-2) in EP4-transfected HEK293 cells; type: cell-based; conditions: HEK293 cells transfected with EP4 BacMam virus; for EC50: 30 min at 37° C., HTRF cAMP, read-out: cAMP human EP4 pEC50 (converted); for cAMP human EP4 Emax: positive control PGE2
T1 construct: expressed in transfected cells; host or cells: HEK293 cells transduced with EP4 BacMam baculovirus
Experimental: Cloning, Baculovirus generation, large scale infection of HEK293 cells and membrane preparation: Human prostaglandin E2 receptor 4 (EP4) was cloned into pBacMam expression vector (GeneScript, UK). Transposition of EP4 DNA was performed using Invitrogen's Bac-to-Bac Baculovirus Expression Systems. P0 baculovirus was generated by transfecting SF9 Cells with bacmid DNA using Cellfectin II transfection reagent (ThermoFisher Scientific, UK). Following P0 generation P1 virus was then generated ready for large scale infection and membrane preparation. HEK293 cells were grown in DMEM (ThermoFisher Scientific, UK), supplemented with 10% heat inactivated fetal bovine serum (FBS). Cells were infected at a seeding density of 3.5 million cells/mL in 500 cm^3 flasks at 5% v/v EP4 Bacman. Expression was carried out over a 36 hour period at 37° C. with 5% CO2. The cells were removed using PBS and a cell scrapper. The cell culture was centrifuged at 2500 RPM for 10 mins at 4° C. The supernatant was then poured off and the pellet stored at −80° C. The pellet was defrosted and re-suspended in 15 mL of homogenising buffer (20 mM HEPES, 10 mM EDTA, pH 7.4). Then homogenised in mechanical homogeniser (VMR) for 10 seconds. The membrane was centrifuged in centrifuge tubes at 40,000 g for 15 mins at 4° C. The supernatant was poured away and re-suspended in 15 mL of homogenising buffer and homogenised for 20 seconds. The membrane was then centrifuged at 40,000 g for 45 mins at 4° C. The membrane was then re-suspended in 3 mL of storage buffer (20 mM HEPES, 0.1 mM EDTA, pH 7.4) mixing well. The resulting membranes were then stored at −80° C.
cAMP Gs Functional Assay: cAMP production following EP4 receptor activation was determined using the Homogeneous Time-Resolved Fluorescence (HTRF) cAMP dynamic-2 assay (Cisbio, France). HEK293 cells were transfected using a 0.5% EP4 Bacman virus for 36 hours, before dissociating the cells, and freezing at −150° C.
On the day of testing, increasing concentration of test compounds, alongside positive controls ([…] PGE2 (Tocris, Abingdon, UK)) and negative control (DMSO (Sigma-Aldrich, UK) were added to a ProxiPlate-384 Plus, White 384-shallow well Mircoplate, (PerkinElmer, USA) using the ECHO dispense.
Cells were defrosted in a water bath and resuspended in DMEM supplemented with 10% FBS before centrifuging at 1200 RPM for 5 mins to form a pellet. The pellet was resuspended in assay buffer (DMEM+0.5 mM IBMX (Tocris, Abingdon, UK)) to 0.5×10^6 cells/mL. Cell suspension, for a final assay concentration of 5000 cell/well was added using the multidrop to the pre-dispensed assay plate. The plate was then incubated at 37° C. for 30 mins, with 5% CO2. The cAMP production was determined as manufacturer's instructions, before plates were read on a PheraStar fluorescence plate reader (BMG LabTech, Germany).

[2] = Unidirectional Caco-2 cell permeability assay; type: in vitro ADME; conditions: human, apical pH 6.5, basolateral pH 7.4, 1 hour, 37° C., n=2
Experimental: Caco-2 cells (ECACC) were seeded onto 24-well Transwell plates at 2×10^5 cells per well and used in confluent monolayers after a 21 day culture at 37° C. under 500 CO2. Test compounds were incubated at 10 μM, 0.2% DMSO final, n=2 in assay buffer (Hanks balanced salt solution supplemented with 25 mM HEPES, adjusted to pH 6.5). Hanks balanced salt solution supplemented with 25 mM HEPES, adjusted to pH 7.4 (0.2% DMSO final) was used for the basolateral chamber (as receiver).
Incubations were performed at 37° C., with samples removed from both donor and acceptor chambers at T=0 and 1 hour and compound analysed by mass spectrometry (LC-MS/MS) including an analytical internal standard ([…] carbamazepine).
Apparent permeability (Papp) values are shown in Table 3 and were determined from the relationship:
Where V is the volume of each Transwell compartment (apical 125 μL, basolateral 600 μL), and concentrations are the relative MS responses for compound (normalized to internal standard) in the donor chamber before incubation and acceptor chamber at the end of the incubation Area=area of cells exposed for drug transfer (0.33 cm^2).
Lucifer Yellow (LY) was added to the apical buffer in all wells to assess viability of the cell layer. As LY cannot freely permeate lipophilic barriers, a high degree of LY transport indicates poor integrity of the cell layer and wells with a LY Papp>10×10^−6 cm/s were rejected.
Compound recovery from the wells was determined from MS responses (normalized to internal standard) in donor and acceptor chambers at the end of incubation compared to response in the donor chamber pre-incubation.

T1 sequence (P35408 whole entry): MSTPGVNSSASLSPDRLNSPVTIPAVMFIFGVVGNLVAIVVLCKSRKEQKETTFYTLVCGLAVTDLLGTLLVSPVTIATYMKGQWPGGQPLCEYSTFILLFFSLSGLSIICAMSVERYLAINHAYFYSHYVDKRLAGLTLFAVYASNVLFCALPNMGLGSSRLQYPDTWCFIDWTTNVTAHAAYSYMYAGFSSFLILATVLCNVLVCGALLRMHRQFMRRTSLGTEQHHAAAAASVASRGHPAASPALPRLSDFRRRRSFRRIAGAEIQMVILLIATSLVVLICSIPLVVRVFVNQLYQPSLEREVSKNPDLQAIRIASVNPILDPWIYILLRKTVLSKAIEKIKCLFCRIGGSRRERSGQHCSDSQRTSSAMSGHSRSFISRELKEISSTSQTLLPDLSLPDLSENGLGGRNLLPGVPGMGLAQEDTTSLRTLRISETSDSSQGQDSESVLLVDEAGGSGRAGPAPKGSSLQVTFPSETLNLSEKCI

EC50 [1] [nM]	Papp A→B at 1 h, 10 μM [2] [×10⁻⁶ cm/s]	cAMP human EP4 Emax [1] [%]	SMILES
> 10000	7.71		C[C@H](NC(=O)[C@H]1CCCN1Cc1cccc(-c2ccc(O)cc2)c1)c1ccc(C(=O)O)cc1 [Example 7, 4-((S)-1-((R)-1-((4′-hydroxy-[1,1′-biphenyl]-3-yl)methyl)pyrrolidine-2-carboxamido)ethyl)benzoic acid]
0.158	0.245	91	Cc1cc(C(N)=O)ccc1-c1cc(O)cc(CN2CC3CC2(C(=O)N[C@@H](C)c2ccc(C(=O)O)cc2)C3)c1 [Example 23, (S)-4-(1-(2-((4′-carbamoyl-5-hydroxy-2′-methyl-[1,1′-biphenyl]-3-yl)methyl)-2-azabicyclo[2.1.1]hexane-1-carboxamido)ethyl)benzoic acid]
1260		91	Cc1cc(C(N)=O)ccc1-c1cncc(CN2C[C@H](O)C[C@@H]2C(=O)N[C@@H](C)c2ccc(C(=O)O)cc2)c1 [Example 25, 4-((S)-1-((2R,4R)-1-((5-(4-carbamoyl-2-methylphenyl)pyridin-3-yl)methyl)-4-hydroxypyrrolidine-2-carboxamido)ethyl)benzoic acid]
63.1	0.36	80	Cc1cc(O)ccc1-c1cccc(CN2C[C@H](O)C[C@@H]2C(=O)N[C@@H](C)c2ccc(C(=O)O)cc2)c1 [Example 5, 4-((S)-1-((2R,4R)-4-hydroxy-1-((4′-hydroxy-2′-methyl-[1,1′-biphenyl]-3-yl)methyl)pyrrolidine-2-carboxamido)ethyl)benzoic acid]
12.6	1.18	100	Cc1cc(C(N)=O)ccc1-c1cccc(CN2CCC[C@@H]2C(=O)N[C@@H](C)c2ccc(C(=O)O)cc2)c1 [Example 3, 4-((S)-1-((R)-1-((4′-carbamoyl-2′-methyl-[1,1′-biphenyl]-3-yl)methyl)pyrrolidine-2-carboxamido)ethyl)benzoic acid]
200	0.33	96	Cc1cc(C(=O)O)ccc1-c1cccc(CN2CCC[C@@H]2C(=O)N[C@@H](C)c2ccc(C(=O)O)cc2)c1 [Example 9, 3′-(((R)-2-(((S)-1-(4-carboxyphenyl)ethyl)carbamoyl)pyrrolidin-1-yl)methyl)-2-methyl-[1,1′-biphenyl]-4-carboxylic acid]
0.02	0.45	98	Cc1cc(C(N)=O)ccc1-c1cccc(CN2CCC[C@@H]2C(=O)NC2(c3ccc(C(=O)O)cc3)CC2)c1 [Example 31, (R)-4-(1-(1-((4′-carbamoyl-2′-methyl-[1,1′-biphenyl]-3-yl)methyl)pyrrolidine-2-carboxamido)cyclopropyl)benzoic acid]
31.6	< 0.1	96	Cc1cc(C(N)=O)ccc1-c1cccc(CN2CCC[C@@H]2C(=O)NCc2ccc(C(=O)O)c(O)c2)c1 [Example 15, (R)-4-((1-((4′-carbamoyl-2′-methyl-[1,1′-biphenyl]-3-yl)methyl)pyrrolidine-2-carboxamido)methyl)-2-hydroxybenzoic acid]
0.251	0.34	99	Cc1cc(C(N)=O)ccc1-c1cc(O)cc(CN2CCC[C@@H]2C(=O)N[C@@H](C)c2ccc(C(=O)O)cc2)c1 [Example 13]
2	1.84	96	Cc1cc(OS(N)(=O)=O)ccc1-c1cccc(CN2CCC[C@@H]2C(=O)N[C@@H](C)c2ccc(C(=O)O)cc2)c1 [Example 10]
2	14.5	81	Cc1cc(O)ccc1-c1cccc(CN2CCC[C@@H]2C(=O)N[C@@H](C)c2ccc(C(=O)O)cc2)c1 [Example 1]
7.94	< 0.11	96	Cc1cc(C(N)=O)ccc1-c1cc(O)cc(CN2C[C@H](O)C[C@@H]2C(=O)N[C@@H](C)c2ccc(C(=O)O)cc2)c1 [Example 21, 4-((S)-1-((2R,4R)-1-((4′-carbamoyl-5-hydroxy-2′-methyl-[1,1′-biphenyl]-3-yl)methyl)-4-hydroxypyrrolidine-2-carboxamido)ethyl)benzoic acid]
0.2	0.24	100	Cc1cc(C(N)=O)ccc1-c1cc(O)cc(CN2CCC[C@@H]2C(=O)N[C@@H](C)c2ccc(C(=O)O)c(O)c2)c1 [Example 34, 4-((S)-1-((R)-1-((4′-carbamoyl-5-hydroxy-2′-methyl-[1,1′-biphenyl]-3-yl)methyl)pyrrolidine-2-carboxamido)ethyl)-2-hydroxybenzoic acid]
158	0.19	100	Cc1cc(C(N)=O)ccc1-c1cc(CN2CCC[C@@H]2C(=O)N[C@@H](C)c2ccc(C(=O)O)cc2)ccc1O [Example 14]
1.58	1.14	99	Cc1cc(S(N)(=O)=O)ccc1-c1cccc(CN2CCC[C@@H]2C(=O)N[C@@H](C)c2ccc(C(=O)O)cc2)c1 [Example 2, 4-((S)-1-((R)-1-((2′-methyl-4′-sulfamoyl-[1,1′-biphenyl]-3-yl)methyl)pyrrolidine-2-carboxamido)ethyl)benzoic acid]
63.1		97	Cc1cc(C(N)=O)ccc1-c1cccc(CN2CCC[C@@H]2C(=O)N[C@@H](C)c2ccc(C(=O)O)c(O)c2)c1 [Example 17, 4-((S)-1-((R)-1-((4′-carbamoyl-2′-methyl-[1,1′-biphenyl]-3-yl)methyl)pyrrolidine-2-carboxamido)ethyl)-2-hydroxybenzoic acid]
31.6	2.1	74	C[C@H](NC(=O)[C@H]1CCCN1Cc1cccc(-c2ccc(O)cc2C#N)c1)c1ccc(C(=O)O)cc1 [Example 8, 4-((S)-1-((R)-1-((2′-cyano-4′-hydroxy-[1,1′-biphenyl]-3-yl)methyl)pyrrolidine-2-carboxamido)ethyl)benzoic acid]
> 1000			Cc1cc(C(N)=O)ccc1-c1cc(CN2CCC[C@@H]2C(=O)N[C@@H](C)c2ccc(C(=O)O)cc2)c[n+]([O-])c1 [Example 26, 3-(4-carbamoyl-2-methylphenyl)-5-(((R)-2-(((S)-1-(4-carboxyphenyl)ethyl)carbamoyl)pyrrolidin-1-yl)methyl)pyridine 1-oxide]
0.398		90	Cc1cc(S(N)(=O)=O)ccc1-c1cccc(CN2CC3CC2(C(=O)N[C@@H](C)c2ccc(C(=O)O)cc2)C3)c1 [Example 32, (S)-4-(1-(2-((2′-methyl-4′-sulfamoyl-[1,1′-biphenyl]-3-yl)methyl)-2-azabicyclo[2.1.1]hexane-1-carboxamido)ethyl)benzoic acid]
